Where two headings read alike, the source gives them in different places.
What was measured:
[1] = test system: Trp53−/−, Cdkn2c−/− neurospheres; assay: FdCyd growth inhibition, control neurospheres; format: cell-based, mouse; conditions: Fig. 2c
CPC cells = assay: FdCyd wash-out experiment, CPC; format: cell-based; conditions: Mus musculus
Protocol: (§1) Myc1 and Myc2 G3 MB, EP, and CPC tumor cells (Supplementary Table 1) were plated in 96-well plates. After 24 h, 128 nL of a dilution series of a selected drug was transferred creating a final drug concentration of 0.5–9.3 µM. To assess the optimal exposure time, the drug was removed and replaced with fresh medium after 1, 3, 6, 10, 24, or 72 h (“wash-out”).
(§2) In both experiments, 72 h after drug addition to cells, we added 100 µL of CellTiter-Glo reagent (Promega), and we read the luminescence signal. Data analysis used GraphPad Prism software (Version 5.04).

CPC tumors = assay: In vivo proliferation, Ki67 immunohistochemistry, CPC
Protocol: (§3) To assess apoptosis and proliferation in vivo, G3 MB, EP, and CPC tumors were isolated from mice 3, 8, or 24 h after treatment with compound or vehicle, fixed in 10 % formalin, and sections were immunostained with antibodies to Caspase 3 (apoptosis) or Ki67 (proliferation).
(§4) In vivo apoptosis and proliferation were performed on G3 MB, EP, and CPC tumors isolated from mice 3, 8, or 24 hr after treatment with compound or vehicle (saline). Tumors were fixed in 10% formalin. Sections (4-micron) were immunostained with antibodies to Caspase 3 (CP229C, BioCare Medical, Concorde, CA) to detect apoptotic cells, or Ki67 (ThermoShandon, RM9106) to detect proliferation. The number of positive cells for each stain was normalized to the total number of cells.
(§5) Mice bearing G3 MB, EP, or CPC tumors were harvested 3, 8, or 24 hr after IP injection of vehicle (V) or FdCyd + THU (FdCyd). Fixed brains were sliced and stained for Ki67. The percentage of positive cells was calculated based on total number of cells.

G3 MB tumors [2] = assay: In vivo apoptosis, Caspase 3 immunohistochemistry, G3 MB
Protocol: as §3, §4
Mice bearing G3 MB, EP, or CPC tumors were harvested 3, 8, or 24 hr after IP injection of vehicle (V) or FdCyd + THU (FdCyd). Fixed brains were sliced and stained for caspase 3. The percentage of positive cells was calculated based on total number of cells. SD= standard deviation.

[3] = In vitro brain homogenate binding; format: in vitro ADME; conditions: data not shown, read-out: fu,b (unbound fraction, brain homogenate)
G3 MB (Myc1) cells = assay: FdCyd wash-out experiment, G3 MB; format: cell-based; conditions: Mus musculus
Protocol: as §1, §2

[4] = Cerebral microdialysis, tECF disposition in tumor-bearing CD1 nude mice; format: in vivo; conditions: mouse, tumor extracellular fluid (dialysate) vs plasma, FdCyd 6 mg/kg with THU 100 mg/kg, read-out: tECF-to-plasma partition coefficient of unbound FdCyd (Kpt,uu), mean ± SD
Protocol: Once a drug passed the Discovery Phase it was moved to the Pre-Clinical Phase, which included PK and PD studies (Fig. 1). The details of the plasma PK and cerebral microdialysis studies are provided in the Supplemental Materials.
Cerebral microdialysis studies were performed in CD1 nude mice orthotopically transplanted with G3 MB, EP, or CPC tumors [,2,6]. Plasma and dialysate samples collected during microdialysis studies were analyzed by using LC-MS/MS to determine drug concentrations. Data obtained from microdialysis performed in individual tumor models were analyzed separately by using a compartmental approach. A model with a tECF compartment that was linked to the plasma compartment by using efflux (CL32) and influx (CL23) clearances was fit to the plasma and tumor ECF concentration-time data. These were obtained from previous plasma PK studies in all tumor models and from each microdialysis by using separate, tumor-specific population NONMEM 7.2.
The tECF-to-plasma partition coefficient of unbound drug (Kpt,uu) was calculated as a ratio of CL23 to CL32. The mean ± SD of individual tECF-to-plasma partition coefficients of unbound FdCyd (Kpt,uu) in CD1 nude mice bearing G3 MB, EP, and CPC were 0.06 ± 0.02, 0.18 ± 0.14, and 0.09 ± 0.04, respectively. […] Inter-animal variability in Kpt,uu, however, was higher in EP tumors than in G3 MB and CPC tumors.The area under plasma concentration-time curve (AUCplasma) was calculated as the ratio of dosage to CL, whereas AUCtECF was calculated as the product of AUCplasma and Kpt,uu.

EP cells = assay: Effect of deoxycytidine on FdCyd efficacy, 72 h, CellTiter-Glo; format: cell-based; conditions: Mus musculus; FdCyd alone, 72 h exposure
Protocol: To test the effect of deoxycytidine on FdCyd efficacy, EP cells were plated in 96 well plates. After 24 h, FdCyd was added at final concentrations ranging from 0.1 nM to 50 μM alone or together with fixed concentration of deoxycytidine (Sigma) of 0.0122, 0.195, 6.25 or 100 μM.
as §2

[5] = test system: Patient-derived xenograft of a human EP; assay: 72 h dose response, CellTiter-Glo, human EP PDX cells; format: cell-based; conditions: Fig. 2b
G3 MB tumors [6] = assay: In vivo proliferation, Ki67 immunohistochemistry, G3 MB
Protocol: as §3, §4, §5

EP tumors = assay: In vivo proliferation, Ki67 immunohistochemistry, EP
Protocol: as §3, §4, §5

[7] = test system: mouse G3 MB tumorspheres (Myc1, Myc2); assay: In vitro proliferation/cell cycle, BrdU FACS; format: cell-based; conditions: 4 nM FdCyd alone, compared to DMSO-treated cells
Description: See Supplementary Material for more details.
Tumors were fixed in 10% formalin.

[8] = test system: tumorspheres derived from murine G3 MB, EP, and CPC; assay: In vitro growth inhibition, all three tumor cell types (summary); format: cell-based; conditions: Mus musculus, 72 hr
[9] = 1 h exposure then wash-out, read at 72 h, read-out: EC50 after 1 h FdCyd exposure
[10] = 72 h, wash-out, 1st of 4 values listed for the remaining time points (3, 6, 10, 24, 72 h), read-out: EC50, longer exposure
[11] = 72 h, wash-out, 2nd of 4 values listed for the remaining time points (3, 6, 10, 24, 72 h), read-out: EC50, longer exposure
[12] = 72 h, wash-out, 3rd of 4 values listed for the remaining time points (3, 6, 10, 24, 72 h), read-out: EC50, longer exposure
[13] = 72 h, wash-out, 4th of 4 values listed for the remaining time points (3, 6, 10, 24, 72 h), read-out: EC50, longer exposure

Q: Which results are given for `Nc1nc(=O)n([C@H]2C[C@H](O)[C@@H](CO)O2)cc1F` [FdCyd, 5-fluoro-2′-deoxycytidine]?
A: sensitivity to FdCyd (growth inhibition) [1]: showed sensitivity; EC50 (CPC cells; [9]): 63 ± 28 nM; EC50 (CPC cells; [10]): 58 nM; EC50 (CPC cells; [11]): 44 nM; EC50 (CPC cells; [12]): 31 nM; EC50 (CPC cells; [13]): 1 nM; Ki67 % of positive cells (CPC tumors; 3 hr after IP injection of FdCyd + THU, vehicle 59.03): 47.82%; Ki67 % of positive cells (CPC tumors; 8 hr after IP injection of FdCyd + THU, vehicle 62.25): 23.4%; Ki67 % of positive cells (CPC tumors; 24 hr after IP injection of FdCyd + THU, vehicle 53.18): 61.3%; Caspase-3 % of positive cells (G3 MB tumors [2]; 3 hr after IP injection of FdCyd + THU, vehicle 12.37): 19.88%; Caspase-3 % of positive cells (G3 MB tumors [2]; 8 hr after IP injection of FdCyd + THU, vehicle 8.945): 11.04%; Caspase-3 % of positive cells (G3 MB tumors [2]; 24 hr after IP injection of FdCyd + THU, vehicle 9.419): 10.38%; fraction unbound [3]: ~1; EC50 (G3 MB (Myc1) cells; [9]): 8 ± 2 nM; EC50 (G3 MB (Myc1) cells; [10]): 5 nM; EC50 (G3 MB (Myc1) cells; [11]): 4 nM; EC50 (G3 MB (Myc1) cells; [12]): 2.3 nM; EC50 (G3 MB (Myc1) cells; [13]): 1 nM; Kp ([4]; mice bearing CPC): 0.09 ± 0.04; Kp ([4]; mice bearing EP): 0.18 ± 0.14; Kp ([4]; mice bearing G3 MB): 0.06 ± 0.02; EC50 (EP cells): 50 nM; EC50 [5]: 8.3 nM; Ki67 % of positive cells (G3 MB tumors [6]; 3 hr after IP injection of FdCyd + THU, vehicle 87.77): 84.97%; Ki67 % of positive cells (G3 MB tumors [6]; 8 hr after IP injection of FdCyd + THU, vehicle 78.11): 76.50%; Ki67 % of positive cells (G3 MB tumors [6]; 24 hr after IP injection of FdCyd + THU, vehicle 85.15): 77.15%; Ki67 % of positive cells (EP tumors; 3 hr after IP injection of FdCyd + THU, vehicle 81.79): 77.06%; Ki67 % of positive cells (EP tumors; 8 hr after IP injection of FdCyd + THU, vehicle 80.10): 72.88%; Ki67 % of positive cells (EP tumors; 24 hr after IP injection of FdCyd + THU, vehicle 68.41): 72.62%; cell cycle distribution (BrdU) [7]: increased the number of cells in the G0/G1phase; EC50 [8]: 1 to 6 nM
